According to patent US9498467B2, “Treatment of chronic neutrophilic leukemia (CNL) and atypical chronic myeloid leukemia (aCML) by inhibitors of JAK1” (Incyte Corporation, priority 2014, dated 2016):

What was measured:
[1] = tested on: GCSF induced pSTAT3 in human neutrophils; experiment: JAK human neutrophil assay (pSTAT3 ELISA); conditions: 0.25 h, read-out: IC50 (inhibition of pSTAT3)
[2] = tested on: CNL carrying a JAK-activating CSF3R mutation; conditions: one patient with CNL carrying a JAK-activating CSF3R mutation; cited from earlier work
[3] = target: T1, human JAK1 (a.a. 837-1142) (Homo sapiens, UniProt P23458); experiment: In vitro JAK kinase assay (HTRF), JAK1; format: biochemical; conditions: 1 mM ATP
T1 construct: human JAK1 (a.a. 837-1142); made in house; host or cells: insect cells (baculovirus)

[4] = target: T2, human JAK2 (a.a. 828-1132) (Homo sapiens, UniProt O60674); experiment: In vitro JAK kinase assay (HTRF), JAK2; format: biochemical; conditions: ratio of IC50s at 1 mM ATP
T2 construct: JAK2 (a.a. 828-1132); made in house; host or cells: insect cells (baculovirus)
T2 sequence (O60674 828-1132): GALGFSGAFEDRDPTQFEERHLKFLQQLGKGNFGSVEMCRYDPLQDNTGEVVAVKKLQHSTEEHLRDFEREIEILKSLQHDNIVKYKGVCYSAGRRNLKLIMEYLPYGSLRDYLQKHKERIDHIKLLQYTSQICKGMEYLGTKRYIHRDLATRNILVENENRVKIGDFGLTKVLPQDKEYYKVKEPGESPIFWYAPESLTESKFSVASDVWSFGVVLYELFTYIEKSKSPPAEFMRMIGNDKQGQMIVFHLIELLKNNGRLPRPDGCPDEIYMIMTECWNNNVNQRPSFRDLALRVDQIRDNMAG

T1 sequence (P23458 849-1154): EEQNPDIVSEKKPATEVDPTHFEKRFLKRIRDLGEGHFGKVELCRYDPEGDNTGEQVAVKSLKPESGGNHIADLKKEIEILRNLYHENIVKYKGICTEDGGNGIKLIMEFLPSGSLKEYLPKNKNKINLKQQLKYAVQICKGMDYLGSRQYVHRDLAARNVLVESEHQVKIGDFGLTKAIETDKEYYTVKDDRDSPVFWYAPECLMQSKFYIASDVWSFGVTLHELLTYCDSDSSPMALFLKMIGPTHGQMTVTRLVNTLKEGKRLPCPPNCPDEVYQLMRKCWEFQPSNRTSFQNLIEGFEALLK

| Structure (SMILES) | IC50 [1] [nM] | clinical improvement [2] | IC50 [3] [nM] | JAK2/JAK1 [4] |
| --- | --- | --- | --- | --- |
| Cc1n[nH]c(C)c1-c1cnn(C2(CC#N)CN(c3cc(F)c(C(=O)N[C@@H](C)C(F)(F)F)cc3F)C2)c1 [Compound 2, 4-[3-(cyanomethyl)-3-(3′,5′-dimethyl-1H,1′H-4,4′-bipyrazol-1-yl)azetidin-1-yl]-2,5-difluoro-N-[(1S)-2,2,2-trifluoro-1-methylethyl]benzamide] | < 100 | – | – | – |
| N#CCC(C1CCCC1)n1cc(-c2ncnc3[nH]ccc23)cn1 (stereo in doubt) [ruxolitinib, (3R)-3-cyclopentyl-3-[4-(7H-pyrrolo[2,3-d]pyrimidin-4-yl)-1H-pyrazol-1-yl]propanenitrile, reference compound] | < 100 | Marked clinical improvement | – | – |
| C[C@@H](O)c1nc2cnc3ccsc3c2n1[C@H]1CC[C@H](CC#N)OC1 [Compound 1, ((2R,5S)-5-{2-[(1R)-1-hydroxyethyl]-1H-imidazo[4,5-d]thieno[3,2-b]pyridin-1-yl}tetrahydro-2H-pyran-2-yl)acetonitrile] | < 100 | – | < 100 | >10 |
| N#CCC1(n2cc(-c3ncnc4[nH]ccc34)cn2)CN(C2CCN(C(=O)c3ccnc(C(F)(F)F)c3F)CC2)C1 [Compound 7, {1-{1-[3-Fluoro-2-(trifluoromethyl)iso-nicotinoyl]piperidin-4-yl}-3-[4-(7H-pyrrolo[2,3-d]pyrimidin-4-yl)-1H-pyrazol-1-yl]azetidin-3-yl}acetonitrile] | < 100 | – | < 10 | >10 |
| N#CC[C@]1(n2cc(-c3ncnc4[nH]ccc34)cn2)C[C@H](N2CCC(Oc3cc(CCO)cc(C(F)(F)F)n3)CC2)C1 [Compound 26, {trans-3-(4-{[4-(2-hydroxyethyl)-6-(trifluoromethyl)pyridin-2-yl]oxy}piperidin-1-yl)-1-[4-(7H-pyrrolo[2,3-d]pyrimidin-4-yl)-1H-pyrazol-1-yl]cyclobutyl} acetonitrile] | – | – | < 10 | >10 |
| N#CCC1(n2cc(-c3ncnc4[nH]ccc34)cn2)CN([C@H]2CC[C@@H](Oc3cc(CN4CC[C@H](O)C4)cc(C(F)(F)F)n3)CC2)C1 [Compound 22, {1-(cis-4-{[4-{[(3S)-3-hydroxypyrrolidin-1-yl]methyl}-6-(trifluoromethyl)pyridin-2-yl]oxy}cyclohexyl)-3-[4-(7H-pyrrolo[2,3-d]pyrimidin-4-yl)-1H-pyrazol-1-yl]azetidin-3-yl}acetonitrile] | – | – | < 10 | >10 |
| N#CCC(CN1CCN(C(=O)c2ccc(C#N)cc2F)CC1)n1ccc(-c2ncnc3[nH]ccc23)c1 (stereo not drawn) [Compound 6, 4-[(4-{3-cyano-2-[3-(7H-pyrrolo[2,3-d]pyrimidin-4-yl)-1H-pyrrol-1-yl]propyl}piperazin-1-yl)carbonyl]-3-fluorobenzonitrile] | – | – | < 10 | >10 |
